Measured values taken from paper PMC4670726, “Systematic discovery of linear binding motifs targeting an ancient protein interaction surface on MAP kinases” (Molecular Systems Biology, 2015).
Ends that are not written are not given here.

Legend:
[1] = target: T1, p38α (Homo sapiens, UniProt Q16539); test: Fluorescence polarization (FP) competitive protein-peptide binding assay, p38α; settings: FP competition titration of unlabeled synthetic peptide against 50 nM fluorescently labeled pepMK2 or pepMEF2A, MAPK at ~60–80% complex formation, 384-well, triplicates, average FP signal fitted; limit of quantitation ~100 μM
T1 construct: hexa-histidine; made in house; host or cells: E. coli (Rosetta pLysS)
T1 sequence (Q16539 whole entry): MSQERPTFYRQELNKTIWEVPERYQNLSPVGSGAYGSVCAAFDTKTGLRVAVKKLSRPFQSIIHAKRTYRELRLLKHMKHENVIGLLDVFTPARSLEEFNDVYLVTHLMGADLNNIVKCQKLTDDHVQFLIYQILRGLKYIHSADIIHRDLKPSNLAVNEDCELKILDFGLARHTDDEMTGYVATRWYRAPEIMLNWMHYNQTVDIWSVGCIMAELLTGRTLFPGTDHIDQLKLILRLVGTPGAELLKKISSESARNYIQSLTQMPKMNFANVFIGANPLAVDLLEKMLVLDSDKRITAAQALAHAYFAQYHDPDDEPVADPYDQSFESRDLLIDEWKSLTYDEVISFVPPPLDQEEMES
Experimental: (§1) In addition to confirming binding in the MAPK‐docking groove, the dissociation constant (Kd) of unlabeled test peptides could also be calculated.
(§2) Dashes indicate cases where the curves could not be fitted (the Kd is above the limit of quantitation of this assay, approximately ~100 μM). Peptides are grouped in two clusters, the first being the strong JNK1 binders (frequently with little or no ERK2/p38α‐binding ability). The second group (below the magenta line) contains peptides with strong ERK2‐ and p38α‐binding capacity (but often little or no affinity toward JNK1). […] Gab3+ is the ortholog of a peptide from Gab1 which was tested as positive in the dot‐blot experiments. The two Gab3 motifs are related neither by structure nor by evolutionary origin. […]
(§3) For fluorescence polarization (FP)‐based binding affinity measurements, known MAPK‐docking groove‐binding peptides were N‐terminally labeled with carboxyfluorescein or carboxytetramethylrhodamine (for ERK2, pepRSK1: […]; for p38α, pepMK2: […] or pepMEF2A: […]; for JNK1, pep JIP3: […]). […] Subsequently, increasing amounts of chemically synthesized test peptides were added, and the FP signal was measured with a Synergy H4 (BioTek Instruments) plate reader in 384‐well plates. The Ki for each unlabeled peptide was determined by fitting the data to a competition binding equation. […]

[2] = target: T2, ERK2 (Homo sapiens, UniProt P28482); test: Fluorescence polarization (FP) competitive protein-peptide binding assay, ERK2; settings: FP competition titration of unlabeled synthetic peptide against 50 nM fluorescently labeled pepRSK1, MAPK at ~60–80% complex formation, 384-well, triplicates, average FP signal fitted; limit of quantitation ~100 μM
T2 construct: hexa-histidine; made in house; host or cells: E. coli (Rosetta pLysS)
T2 sequence (P28482 whole entry): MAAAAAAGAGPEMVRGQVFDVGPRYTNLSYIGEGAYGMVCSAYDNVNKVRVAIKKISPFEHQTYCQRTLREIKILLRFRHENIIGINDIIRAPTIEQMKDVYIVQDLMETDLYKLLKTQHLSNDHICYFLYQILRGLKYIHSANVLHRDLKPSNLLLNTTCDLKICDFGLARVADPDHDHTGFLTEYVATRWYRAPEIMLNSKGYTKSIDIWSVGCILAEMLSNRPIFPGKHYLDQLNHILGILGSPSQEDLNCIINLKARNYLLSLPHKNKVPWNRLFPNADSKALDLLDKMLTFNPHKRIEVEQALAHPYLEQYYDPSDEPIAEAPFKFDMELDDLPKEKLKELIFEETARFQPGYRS
Experimental: as §1, §2, §3

[3] = target: T3, JNK1 (Homo sapiens, UniProt P45983); test: Fluorescence polarization (FP) competitive protein-peptide binding assay, JNK1; settings: FP competition titration of unlabeled synthetic peptide against 50 nM fluorescently labeled pep JIP3, MAPK at ~60–80% complex formation, 384-well, triplicates, average FP signal fitted; limit of quantitation ~100 μM
T3 construct: hexa-histidine; made in house; host or cells: E. coli (Rosetta pLysS)
T3 sequence (P45983 whole entry): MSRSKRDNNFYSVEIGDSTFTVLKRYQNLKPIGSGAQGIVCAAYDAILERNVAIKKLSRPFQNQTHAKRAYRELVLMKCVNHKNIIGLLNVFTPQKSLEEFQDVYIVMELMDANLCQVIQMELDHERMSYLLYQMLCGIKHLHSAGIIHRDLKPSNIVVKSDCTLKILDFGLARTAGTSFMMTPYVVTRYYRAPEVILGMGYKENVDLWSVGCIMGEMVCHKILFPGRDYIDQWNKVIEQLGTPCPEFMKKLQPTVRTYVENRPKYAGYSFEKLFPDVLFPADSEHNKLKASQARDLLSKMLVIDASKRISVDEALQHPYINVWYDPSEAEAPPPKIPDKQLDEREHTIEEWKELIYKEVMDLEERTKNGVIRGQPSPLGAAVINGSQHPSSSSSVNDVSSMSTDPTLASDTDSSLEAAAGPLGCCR
Experimental: as §1, §2, §3

Kd [1]: 2 µM
Kd [2]: 0.7 µM
Kd [3]: 13.2 µM
Sequence: KPQRKSRPPPLDLRNLS [GAB3+]
